Here are results for 39 compounds from patent US11560391B2, “Sulfonylurea compounds as inhibitors of interleukin-1 activity” (Genentech, Inc., priority 2018, dated 2023).

The target of this assay is T1, NLRP3 inflammasome (Homo sapiens, UniProt Q96P20).
T1 construct: freshly isolated from human peripheral blood from healthy donors; StemCells Technologies; host or cells: primary human PBMCs
As to the kind of experiment: NLRP3 inflammasome activation assay in LPS-primed, nigericin-stimulated PBMCs, IL-1β release. The class given is cell-based. Particulars: 10 μM nigericin. The procedure:
Some of the following assays were used to determine the inhibitory activity of the compounds on the NLRP3 inflammasome using a common inflammasome activation stimuli-nigericin.
Human peripheral blood mononuclear cells (PBMCs), consisting of lymphocytes (T, B and NK cells), monocytes and dendritic cells, are freshly isolated from human peripheral blood from healthy donors. Cells are obtained through an IRB approved donor program by iXCells Biotechnologies where all the donors are tested for bacterial and viral infections. Cells are purified from peripheral blood using ficoll gradient centrifugation.
Fresh or cryopreserved PMBCs are seeded in V-bottom 96-well plate at 0.5-1×10^5 cells per well and incubated overnight at 37° C. with 5% CO2 in RPMI 1640 medium with GlutaMAX supplement, 4.5 g/L D-glucose, 10% Fetal Bovine Serum (FBS), […] Sodium Pyruvate, 1% Penicillin/Streptomycin, 10 mM HEPES and 0.05 mM of […]. Freshly isolated or cryopreserved KCs cells are seeded in flat-bottom 96-well plates at 0.6-1.5×10^5 cells/well and incubated overnight at 37° C., 5% CO2 in RPMI 1640 Medium with GlutaMAX supplement, FBS, 1% Penicillin/Streptomycin and 10 mM HEPES. The following day, the cells are primed with 100 ng/mL of lipopolysaccharides (LPS; Sigma Aldrich) in FBS-free RPMI 1640 for 3 h. After the priming step, the media is removed and PBMCs are pre-incubated with serial concentrations of test compounds (0.00017-10 uM) or vehicle (DMSO) for 30 min in FBS-free media prior to addition of the NLRP3 activator. Cells are then stimulated with 10 μM Nigericin (Sigma Aldrich; InvivoGen) for 1.5 h. Plates were centrifuged at 1,500 rpm for 3 minutes to pellet cells and supernatant was transferred into new plates for subsequent experiments.
For ELISA assays cells are seeded into 96-well plates. Post study, supernatants are removed and the levels of mature IL-1β, IL18 and TNFα (Quantikine ELISA, R&D systems) are measured in cell conditioned media by ELISA according to manufacturer's instructions.
Human frozen PBMCs were purchased from StemCells Technologies. Cells were rapidly thawed in 37° C. water bath and resuspended in fresh assay media consisting of RPMI 1640 Medium containing 1% sodium pyruvate, 10 mM HEPES, 2.5 g/L glucose and 55 μM 2-Mercaptoethanol. Cell density was adjusted to 8.1×10^5 cells/mL. Cells were primed by adding lipopolysaccharide (Invivogen Ultrapure lipopolysaccharide from E. coli, tlrl-3pelps) at a final concentration of 100 ng/mL in cell suspension. 37 μL of cell suspension with LPS was seeded per well of a 384 well plate and incubated for 3 hours at 37° C. and 5% CO2. After priming, PBMCs were preincubated with serially diluted test compounds with starting concentration of 40 μM followed by 2-fold dilution for a 20-point curve or vehicle (DMSO) for 30 min in assay media at 37° C. and 5% CO2. Cells were then stimulated with 10 μM nigericin (Invivogen, tlrl-nig-5) for 90 min at 37° C. and 5% CO2 to activate NLRP3 dependent inflammasome pathway and IL-1β release in cell culture supernatant. Cells were centrifuged at 1200 RPM for 1 min and 40 μL of supernatant was transferred into fresh plates and stored at −80° C. until IL-1β analysis.
16 μL of supernatant was added to white 384 well HTRF plates, followed by addition of 4 μL of HTRF cocktail in each well. Plates were quickly centrifuged, sealed and incubated overnight at room temperature. Next day, HTRF signal was read on a Pherastar and ratio of 665/620 was calculated based on manufacturer's protocol to obtain concentration of IL-1β in cell culture supernatant.

[1] abbreviates: LPS 100 ng/mL priming, read-out: IL-1B pIC50 (converted).
Setting [2] is: PBMC, LPS priming, read-out: PMBC IL-1β IC50.

Where two headings read alike, the source gives them in different places.

T1 sequence (Q96P20 whole entry): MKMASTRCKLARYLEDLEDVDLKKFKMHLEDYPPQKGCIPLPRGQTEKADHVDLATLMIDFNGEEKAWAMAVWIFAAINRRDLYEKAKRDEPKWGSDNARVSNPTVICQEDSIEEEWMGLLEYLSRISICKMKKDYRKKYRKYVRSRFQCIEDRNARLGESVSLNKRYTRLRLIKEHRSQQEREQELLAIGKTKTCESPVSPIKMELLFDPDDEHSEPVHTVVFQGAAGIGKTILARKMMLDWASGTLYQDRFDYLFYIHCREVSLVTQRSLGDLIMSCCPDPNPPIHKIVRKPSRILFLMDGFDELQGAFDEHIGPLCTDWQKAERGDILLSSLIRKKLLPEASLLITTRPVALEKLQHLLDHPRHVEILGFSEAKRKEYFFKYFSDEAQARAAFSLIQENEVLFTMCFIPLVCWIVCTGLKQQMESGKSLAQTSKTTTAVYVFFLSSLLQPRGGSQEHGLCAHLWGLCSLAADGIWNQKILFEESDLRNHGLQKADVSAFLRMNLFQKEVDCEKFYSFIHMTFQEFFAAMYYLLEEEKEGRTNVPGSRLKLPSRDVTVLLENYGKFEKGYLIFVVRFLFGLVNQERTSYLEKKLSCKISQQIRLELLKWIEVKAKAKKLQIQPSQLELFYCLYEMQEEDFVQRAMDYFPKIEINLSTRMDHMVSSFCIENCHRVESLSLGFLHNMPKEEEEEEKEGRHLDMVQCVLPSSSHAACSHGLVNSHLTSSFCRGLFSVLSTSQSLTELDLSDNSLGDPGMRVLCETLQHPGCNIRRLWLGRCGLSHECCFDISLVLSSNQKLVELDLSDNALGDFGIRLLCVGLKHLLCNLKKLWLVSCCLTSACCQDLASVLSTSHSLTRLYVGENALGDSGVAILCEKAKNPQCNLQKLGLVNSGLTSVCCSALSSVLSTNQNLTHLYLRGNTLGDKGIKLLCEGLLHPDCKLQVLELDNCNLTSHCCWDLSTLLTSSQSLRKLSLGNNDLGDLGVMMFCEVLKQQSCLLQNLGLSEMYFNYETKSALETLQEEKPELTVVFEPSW

In the case of `CC1Cc2ccccc2C1NC(=O)NS(=O)(=O)c1cnn2c1OCCC2` (stereo not drawn) [drawing 371], the IC50 under setting [1] is greater than 10 µM.
For `O=C(NC(c1ccccc1)c1ccccc1)NS(=O)(=O)c1cnn2c1OCCC2` [Example 15, N-(benzhydrylcarbamoyl)-6,7-dihydro-5H-pyrazolo[5,1-b][1,3]oxazine-3-sulfonamide], the IC50 under setting [2] is greater than 10 µM.
In the case of `O=C(Nc1c2c(n3c1CCC3)CCCC2=O)NS(=O)(=O)c1cnn2c1OCCC2` [Example 29, N-((8-oxo-2,3,5,6,7,8-hexahydro-1H-pyrrolo[1,2-a]indol-9-yl)carbamoyl)-6,7-dihydro-5H-pyrazolo[5,1-b][1,3]oxazine-3-sulfonamide], the IC50 under setting [2] is greater than 10 µM.
Regarding `Cc1cc(C)nc(NC(=O)NS(=O)(=O)c2cnn3c2OCCC3)n1` [drawing 390], under setting [1], the IC50 is greater than 10 µM.
On the same count and under the same terms, to `CC1CCCC(C)N1NC(=O)NS(=O)(=O)c1cnn2c1OCCC2` (stereo not drawn) belongs greater than 10 µM.
On the same count and under the same terms, to `O=C(Nc1c2c(n3c1CCC3)CCCC2=O)NS(=O)(=O)c1cnn2c1OCCC2` [drawing 395] belongs greater than 10 µM; to `O=C(NC1c2ccccc2CC12CCOCC2)NS(=O)(=O)c1cnn2c1OCCC2` (stereo not drawn) [drawing 367], greater than 10 µM.
On to `O=C(NC1c2ccccc2CC12CCOCC2)NS(=O)(=O)c1cnn2c1OCCC2` (stereo not drawn) [Example 2, N-((1,2′,3,3′,5′,6′-hexahydrospiro[indene-2,4′-pyran]-1-yl)carbamoyl)-6,7-dihydro-5H-pyrazolo[5,1-b][1,3]oxazine-3-sulfonamide], for which, under setting [2], the IC50 was greater than 10 µM.
`Cc1cc(NC(=O)NS(=O)(=O)c2cnn3c2OCCC3)n(C(C)C)n1` [Example 43, N-((1-isopropyl-3-methyl-1H-pyrazol-5-yl)carbamoyl)-6,7-dihydro-5H-pyrazolo[5,1-b][1,3]oxazine-3-sulfonamide]: under setting [2], the IC50 is greater than 10 µM.
As to `O=C(Nc1nc(-c2ccccc2)cc(C(F)(F)F)n1)NS(=O)(=O)c1cnn2c1OCCC2` [drawing 382], the IC50 under setting [1] is greater than 10 µM.
Turning to `COc1cc(OC)nc(NC(=O)NS(=O)(=O)c2cnn3c2OCCC3)n1` [drawing 383], the IC50 (IL-1B pIC50 (μM), LPS 100 ng/mL priming) was greater than 10 µM.
Turning to `C=C(C)c1cncc(C(=C)C)c1NC(=O)NS(=O)(=O)c1cnn2c1OCCC2` [Example 27, N-((3,5-di(prop-1-en-2-yl)pyridin-4-yl)carbamoyl)-6,7-dihydro-5H-pyrazolo[5,1-b][1,3]oxazine-3-sulfonamide], the IC50 under setting [2] was greater than 10 µM.
Still for that read-out and setting: the figure for `CC(C)(C)c1cc(NC(=O)NS(=O)(=O)c2cnn3c2OCCC3)n(C(C)(C)C)n1` [Example 36, N-((1,3-di-tert-butyl-1H-pyrazol-5-yl)carbamoyl)-6,7-dihydro-5H-pyrazolo[5,1-b][1,3]oxazine-3-sulfonamide, ammonia] is greater than 10 µM.
Regarding `O=C(Nc1c(-c2ccccc2)nc2ccccn12)NS(=O)(=O)c1cnn2c1OCCC2` [drawing 375], the IC50 under setting [1] was greater than 10 µM.
Same read-out and setting: to `C=C(C)c1cncc(C(=C)C)c1NC(=O)NS(=O)(=O)c1cnn2c1OCCC2` [drawing 392] belongs greater than 10 µM.
Regarding `O=C(NC1(c2ccccc2)CCCCCC1)NS(=O)(=O)c1cnn2c1OCCC2` [Example 12, N-((1-phenylcycloheptyl)carbamoyl)-6,7-dihydro-5H-pyrazolo[5,1-b][1,3]oxazine-3-sulfonamide], under setting [2], the IC50 is greater than 10 µM.
Same read-out and setting: the figure for `O=C(NN1CC2CCCC2C1)NS(=O)(=O)c1cnn2c1OCCC2` (single isomer, unassigned) [Example 13a, N-((hexahydrocyclopenta[c]pyrrol-2(1H)-yl)carbamoyl)-6,7-dihydro-5H-pyrazolo[5,1-b][1,3]oxazine-3-sulfonamide] is greater than 10 µM.
As to `CC1(C)COc2c(S(=O)(=O)NC(=O)NC3CCCCc4ccccc43)cnn2C1` (stereo not drawn) [drawing 413], the IC50 under setting [1] is greater than 10 µM.
Turning to `Cc1cc(NC(=O)NS(=O)(=O)c2cnn3c2OCCC3)n(C(C)C)n1` [drawing 410], the IC50 under setting [1] was greater than 10 µM.
On to `O=C(NN1CCOc2ccccc21)NS(=O)(=O)c1cnn2c1OCCC2`, for which the IC50 under setting [1] is greater than 10 µM.
The same measure, in the same setting: the figure for `O=C(Nc1nc(Cl)cc(Cl)n1)NS(=O)(=O)c1cnn2c1OCCC2` [drawing 369] is greater than 10 µM.
Turning to `CC(C)c1nn(C)c(C(C)C)c1NC(=O)NS(=O)(=O)c1cnn2c1OCCC2` [Example 26, N-((3,5-diisopropyl-1-methyl-1H-pyrazol-4-yl)carbamoyl)-6,7-dihydro-5H-pyrazolo[5,1-b][1,3]oxazine-3-sulfonamide], the IC50 under setting [2] was greater than 10 µM.
In the case of `O=C(Nc1nc(-c2ccccc2)cc2c1CCC2)NS(=O)(=O)c1cnn2c1OCCC2` [drawing 388], the IC50 under setting [1] was greater than 10 µM.
As for `Cc1cc(C2CC2)nc(NC(=O)NS(=O)(=O)c2cnn3c2OCCC3)n1` [drawing 386], under setting [1], the IC50 is greater than 10 µM.
For `O=C(NC1CCOc2ccccc21)NS(=O)(=O)c1cnn2c1OCCC2` (racemic) [Example 9, N-(chroman-4-ylcarbamoyl)-6,7-dihydro-5H-pyrazolo[5,1-b][1,3]oxazine-3-sulfonamide], the IC50 under setting [2] is greater than 10 µM.
Regarding `O=C(NN1CC2CCCC2C1)NS(=O)(=O)c1cnn2c1OCCC2` (stereo not drawn), the IC50 under setting [1] was greater than 10 µM.
On the same count and under the same terms, the figure for `CC(C)(C)c1cc(C(C)(C)C)nc(NC(=O)NS(=O)(=O)c2cnn3c2OCCC3)n1` [drawing 387] is greater than 10 µM.
On to `CC1(C)CCc2ccccc2C1NC(=O)NS(=O)(=O)c1cnn2c1OCCC2` (stereo not drawn) [Example 1, N-((2,2-dimethyl-1,2,3,4-tetrahydronaphthalen-1-yl)carbamoyl)-6,7-dihydro-5H-pyrazolo[5,1-b][1,3]oxazine-3-sulfonamide], for which the IC50 under setting [2] is greater than 10 µM.
For `O=C(NC1c2ccccc2-c2ccccc21)NS(=O)(=O)c1cnn2c1OCCC2` [Example 5, N-((9H-fluoren-9-yl)carbamoyl)-6,7-dihydro-5H-pyrazolo[5,1-b][1,3]oxazine-3-sulfonamide], the IC50 under setting [2] was greater than 10 µM.
For the compound `O=C(NC(c1ccccc1)c1ccccc1)NS(=O)(=O)c1cnn2c1OCCC2` [drawing 380], under setting [1], the IC50 was greater than 10 µM.
Same read-out and setting: the figure for `CC(C)c1cc(Cl)nc(NC(=O)NS(=O)(=O)c2cnn3c2OCCC3)n1` [drawing 381] is greater than 10 µM.
Consider `CC1CCCC(C)N1NC(=O)NS(=O)(=O)c1cnn2c1OCCC2` (mixture of isomers) [Example 7, N-((2,6-dimethylpiperidin-1-yl)carbamoyl)-6,7-dihydro-5H-pyrazolo[5,1-b][1,3]oxazine-3-sulfonamide], for which the IC50 under setting [2] was greater than 10 µM.
For the compound `Cc1ccc(Br)c(NC(=O)NS(=O)(=O)c2cnn3c2OCCC3)n1` [drawing 385], under setting [1], the IC50 was greater than 10 µM.
Consider `CC1(C)COc2c(S(=O)(=O)NC(=O)NC3CCCCc4ccccc43)cnn2C1` (stereo not drawn) [Example 46, 6,6-dimethyl-N-((6,7,8,9-tetrahydro-5H-benzo[7]annulen-5-yl)carbamoyl)-6,7-dihydro-5H-pyrazolo[5,1-b][1,3]oxazine-3-sulfonamide], for which the IC50 under setting [2] was greater than 10 µM.
Consider `CC(C)(C)c1cc(NC(=O)NS(=O)(=O)c2cnn3c2OCCC3)n(C(C)(C)C)n1` [drawing 403], for which the IC50 under setting [1] was greater than 10 µM.
On the same count and under the same terms, the figure for `Cc1nc(NC(=O)NS(=O)(=O)c2cnn3c2OCCC3)nc2c1CCCC2` [drawing 389] is greater than 10 µM.
Consider `Cc1ccc(Br)c(NC(=O)NS(=O)(=O)c2cnn3c2OCCC3)n1` [Example 20, N-((3-bromo-6-methylpyridin-2-yl)carbamoyl)-6,7-dihydro-5H-pyrazolo[5,1-b][1,3]oxazine-3-sulfonamide], for which the IC50 under setting [2] is greater than 10 µM.
Consider `CC1(C)CCc2ccccc2C1NC(=O)NS(=O)(=O)c1cnn2c1OCCC2` (stereo not drawn) [drawing 366], for which the IC50 under setting [1] was greater than 10 µM.
On the same count and under the same terms, the figure for `O=C(NN1CCCCCC1)NS(=O)(=O)c1cnn2c1OCCC2` [drawing 379] is greater than 10 µM.
